In ChEMBL document CHEMBL1201862, “PubChem BioAssay data set” (2004):
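Where inhibition never reached the appropriate level, the endpoint shown equals the highest concentration tested. Otherwise, values were interpolated linearly from a five-concentration, 48-hour dose response in 96-well plates. GI50: concentration for 50% inhibition of growth.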 Activity calls are given as the source filed them. Rule as the data show it: active = GI50 up to about 1.1 µM and inactive = higher.

Assays:
Test in all cases: DTP human tumour cell line panel, 48 h
[1] = system: OVCAR-4
[2] = system: SK-OV-3
[3] = system: MDA-MB-231
[4] = system: HOP-62
[5] = system: SN12C
[6] = system: SK-MEL-28
[7] = system: LOX IMVI
[8] = system: HCC 2998
[9] = system: MOLT-4
[10] = system: Malme-3M
[11] = system: TK-10
[12] = system: A498
[13] = system: HOP-92
[14] = system: SF-539
[15] = system: NCI-H23
[16] = system: OVCAR-8
[17] = system: RPMI-8226
[18] = system: MDA-N
[19] = system: SF-295
[20] = system: DU-145

Measured: GI50

CCCCNc1nc2ccccc2c2c1ncn2CC(C)C
inactive: [1] > 100 µM | [2] > 100 µM | [3] > 100 µM | [4] > 100 µM | [5] > 100 µM | [6] > 100 µM | [7] > 100 µM | [8] > 100 µM | [9] > 100 µM | [10] > 100 µM | [11] > 100 µM | [12] > 100 µM | [13] > 100 µM | [14] > 100 µM | [15] > 100 µM | [16] > 100 µM | [17] > 100 µM | [18] > 100 µM | [19] > 100 µM | [20] > 100 µM

COC(=O)/C(=C\c1ccco1)P(=O)(OC)OC
inactive: [1] 17.8 µM | [2] 73.6 µM | [3] 38.8 µM | [4] 25.4 µM | [5] 39.9 µM | [6] 52.8 µM | [7] 19.9 µM | [8] > 100 µM | [9] > 100 µM | [10] 16.4 µM | [11] > 100 µM | [12] 54.3 µM | [13] 25.2 µM | [14] 32.5 µM | [15] 30.5 µM | [16] 31.5 µM | [17] 67.8 µM | [18] 56.1 µM | [19] 20 µM | [20] 80.9 µM

O=C(Oc1ccccn1)c1cc2cc(CCl)ccc2oc1=O
inactive: [1] 23 µM | [2] > 100 µM | [3] 19.7 µM | [4] 23.7 µM | [5] 25.2 µM | [6] 49 µM | [7] 33.3 µM | [8] 58.9 µM | [9] 31.2 µM | [10] 15.7 µM | [11] 72.1 µM | [12] 70.6 µM | [13] 20.7 µM | [14] 50.5 µM | [15] 21.6 µM | [16] 35.6 µM | [17] 35.6 µM | [18] 43.5 µM | [19] 68.1 µM | [20] 42.8 µM
